Data reported in US11076597B2, “High stress resistant plant growth regulator and preparation method and use thereof” (SHANGHAI INSTITUTES FOR BIOLOGICAL SCIENCES, CHINESE …, priority 2015, dated 2021).

Target: T1, rice OsPYL2 + Arabidopsis AtHAB1 (Oryza sativa subsp. japonica, UniProt Q5Z8S0)
T1 construct: made in house; host or cells: E. coli BL21 (DE3)
T1 sequence (Q5Z8S0 1-207): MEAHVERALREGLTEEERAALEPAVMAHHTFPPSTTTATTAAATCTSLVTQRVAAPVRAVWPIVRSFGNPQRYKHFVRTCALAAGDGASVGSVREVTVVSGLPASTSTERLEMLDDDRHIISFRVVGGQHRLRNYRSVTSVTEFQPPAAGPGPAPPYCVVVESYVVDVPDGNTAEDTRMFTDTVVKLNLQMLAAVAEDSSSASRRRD
T1 sequence (Q9CAJ0 172-511 partner limits assumed): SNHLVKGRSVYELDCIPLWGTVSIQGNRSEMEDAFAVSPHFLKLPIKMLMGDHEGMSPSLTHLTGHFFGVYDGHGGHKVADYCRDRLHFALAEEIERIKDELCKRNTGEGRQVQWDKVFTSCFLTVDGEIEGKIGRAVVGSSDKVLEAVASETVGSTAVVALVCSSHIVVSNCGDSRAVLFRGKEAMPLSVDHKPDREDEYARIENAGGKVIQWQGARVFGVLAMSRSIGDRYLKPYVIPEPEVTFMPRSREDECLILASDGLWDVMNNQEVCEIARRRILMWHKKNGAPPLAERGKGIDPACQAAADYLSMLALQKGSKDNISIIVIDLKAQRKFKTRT
Assay: AlphaScreen assay: promotion of the interaction of rice OsPYL2 with Arabidopsis HAB1
Type: binding, rice (OsPYL2); Arabidopsis thaliana (HAB1)
Details: FIG. 13b; 6×His-SUMO-tagged rice OsPYL2, Biotin-tagged Arabidopsis HAB1 (aa 172-511), 100 nM each; pH 7.4; 1.5 h room temperature
Text: Compound 0428 can promote the interaction of the Arabidopsis protein phosphatase HAB1 with soybean GmPYL6 or rice OsPYL2, and this interaction is dose-dependent.
The construction method of recombinant plasmids for the Arabidopsis thaliana genes PYL1 (amino acid sequence 36-211), PYL2 (amino acid sequence 14-188) with dual tags of 6×His and SUMO sequence and the Arabidopsis thaliana gene HAB1 (amino acid sequence 172-511) with the Biotin tag sequence is described in detail in “A gate-latch-lock mechanism for hormone signaling by abscisic acid receptors” (Nature, Vol 462, 2009). The construction method of recombinant plasmids for PYR1 and PYL7 (whole gene coding sequence) and Soybean GmPYL6 and rice OsPYL2 with dual tags of 6×His and SUMO sequence is the same as that for Arabidopsis PYL2.
The above recombinant plasmid is transformed into competent cell of E. coli BL21 (DE3) (purchased from NEB company), and inoculated into 200 ml of LB liquid medium containing Amp resistance (purchased from OXOID company) and cultured overnight at 37° C. at 200 rpm; and inoculated into 2 L of LB liquid medium containing Amp resistance at a ratio of 1:50-1:100 for an extended culture, and cultured at 37° C., 200 rpm for 3-4 hours, and at a low temperature of 16° C. until OD600 is about 0.8-1.0. […]

How did the EC50 turn out when CC1=CC(=O)CC(C)(C)[C@@]1(O)/C=C/C(C)=C\C(=O)O [ABA, Abscisic Acid, reference compound] was run?
Its EC50 is 149 nM.
